From US5736629A, “Herbicide resistant rice” (priority 1997, dated 1998)

Tested on: rice line ATCC 97523 (second resistance mechanism only)
Experiment: Greenhouse test of plant vigor after imazethapyr, ATCC 97523
Type: in vivo
Settings: for Rating of rice plant vigor: 36 days after treatment at 2-3 leaf stage, 10-point scale, 0 = dead plant, 10 = no visible injury
From the text: In the greenhouse tests, pots were planted with F3 seed from crosses between the two lines. Each pot was planted with seed from a single panicle from a single plant; each pot was therefore the equivalent of a headrow. A total of 140 pots were planted in this manner, along with 40 pots of various non-resistant genotypes for comparison. Imazethapyr was applied at the 2-3 leaf stage two weeks after planting, at rates equivalent to 0.063 lb. active ingredient (a.i.) per acre, 0.125 lb. a.i./acre, and 0.313 lb. a.i./acre.
Table 2 summarizes measurements taken 36 days after spraying rice at the 2-3 leaf stage of development.

Compound: CCc1cnc(C2=NC(C)(C(C)C)C(=O)N2)c(C(=O)O)c1 (racemic) [imazethapyr, (±)-2-[4,5-dihydro-4-methyl-4-(1-methylethyl)-5-oxo-1H-imidazol-2-yl]-5-ethyl-3-pyridinecarboxylic acid]
- Rating of rice plant vigor (0.063 lb. a.i./acre): 9.01 ± 0.59
- Rating of rice plant vigor (0.125 lb. a.i./acre): 5.71 ± 0.93
- Rating of rice plant vigor (0.313 lb. a.i./acre): about 4.0
- Rating of rice plant vigor (0.313 lb. a.i./acre, listed as Imazethapyr): 4.00 ± 0.32
- Time to visible resumption of growth after herbicide application (ATCC 97523 plants, greenhouse test): about two weeks
- Visible injury (in words) (plants with only the second resistance mechanism, 0.313 lb a.i./acre, 36 days after treatment): substantial injury
